Results on 14 molecules are retold here after patent US8791132B2, “Compounds and methods for treatment of hypertension” (Medivation Technologies, Inc., priority 2011, dated 2014).

Values joined by “and” are separate entries in the source; they are usually repeats but may differ in a detail not shown here. Equal values may be shown once. Read-outs that look alike come from different tables or passages of the source.

In assay [1] the target is T1, human recombinant adrenergic α2A receptor (Homo sapiens, UniProt P08913).
T1 construct: expressed in transfected cells; host or cells: insect Sf9 cells
T1 sequence (P08913 1-465): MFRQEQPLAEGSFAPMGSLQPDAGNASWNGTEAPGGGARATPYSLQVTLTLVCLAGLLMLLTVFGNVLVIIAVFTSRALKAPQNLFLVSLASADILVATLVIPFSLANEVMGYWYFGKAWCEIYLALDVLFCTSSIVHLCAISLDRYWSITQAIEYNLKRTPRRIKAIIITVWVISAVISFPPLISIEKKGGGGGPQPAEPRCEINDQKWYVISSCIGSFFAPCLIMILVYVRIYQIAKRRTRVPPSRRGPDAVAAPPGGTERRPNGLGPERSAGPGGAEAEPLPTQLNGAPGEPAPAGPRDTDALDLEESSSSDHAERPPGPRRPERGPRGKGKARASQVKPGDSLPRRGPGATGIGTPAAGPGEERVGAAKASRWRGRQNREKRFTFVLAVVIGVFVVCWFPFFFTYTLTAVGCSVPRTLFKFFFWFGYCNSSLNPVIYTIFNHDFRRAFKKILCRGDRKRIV
In words: Radioligand binding, adrenergic α2A ([3H]MK-912). Particulars: for Percentage inhibition of ligand binding, Adrenergic α2A (0.1 μM) / Percentage inhibition of ligand binding, Adrenergic α2A: 0.1 µM. The procedure, abridged:
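Sf9-expressed receptor was incubated with compound for 60 min at 25 °C in modified Tris-HCl buffer, pH 7.4. Nonspecific binding was taken as that remaining with 10 μM WB-4101.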

For assay [2], the target named is T2, human recombinant adrenergic α2B receptor (Homo sapiens, UniProt P18089).
T2 construct: expressed in transfected cells; host or cells: CHO-K1
T2 sequence (P18089 1-450): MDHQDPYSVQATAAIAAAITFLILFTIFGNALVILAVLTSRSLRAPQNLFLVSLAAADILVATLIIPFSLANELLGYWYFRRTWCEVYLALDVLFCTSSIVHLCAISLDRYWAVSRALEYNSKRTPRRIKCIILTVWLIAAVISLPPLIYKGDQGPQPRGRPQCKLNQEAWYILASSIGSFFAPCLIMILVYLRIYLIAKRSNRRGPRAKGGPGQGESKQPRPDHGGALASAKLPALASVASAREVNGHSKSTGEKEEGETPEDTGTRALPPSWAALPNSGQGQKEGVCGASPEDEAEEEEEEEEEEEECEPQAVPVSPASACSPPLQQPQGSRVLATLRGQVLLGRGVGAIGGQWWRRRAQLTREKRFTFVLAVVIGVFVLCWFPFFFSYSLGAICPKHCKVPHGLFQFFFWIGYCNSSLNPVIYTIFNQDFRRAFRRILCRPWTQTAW
In words: Radioligand binding, adrenergic α2B ([3H]Rauwolscine). The conditions noted are these: for Percentage inhibition of ligand binding, Adrenergic α2B (0.03 μM) / Percentage inhibition of ligand binding, Adrenergic α2B: 0.03 µM; for Ki: read-out: Ki α2B. The gist of the method: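 Values are percent inhibition of specific radioligand binding. The receptor, expressed in CHO-K1 cells, was exposed to 2.5 nM [3H]Rauwolscine at 25° C for 60 min, with 10 μM Prazosin marking non-specific binding.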

The target of assay [3] is T3, rat adrenergic α1B receptor (Rattus norvegicus, UniProt P15823).
T3 construct: rat adrenergic α1B receptor obtained from Wistar Rat liver; from tissue; host or cells: Wistar rat liver
T3 sequence (P15823 1-515): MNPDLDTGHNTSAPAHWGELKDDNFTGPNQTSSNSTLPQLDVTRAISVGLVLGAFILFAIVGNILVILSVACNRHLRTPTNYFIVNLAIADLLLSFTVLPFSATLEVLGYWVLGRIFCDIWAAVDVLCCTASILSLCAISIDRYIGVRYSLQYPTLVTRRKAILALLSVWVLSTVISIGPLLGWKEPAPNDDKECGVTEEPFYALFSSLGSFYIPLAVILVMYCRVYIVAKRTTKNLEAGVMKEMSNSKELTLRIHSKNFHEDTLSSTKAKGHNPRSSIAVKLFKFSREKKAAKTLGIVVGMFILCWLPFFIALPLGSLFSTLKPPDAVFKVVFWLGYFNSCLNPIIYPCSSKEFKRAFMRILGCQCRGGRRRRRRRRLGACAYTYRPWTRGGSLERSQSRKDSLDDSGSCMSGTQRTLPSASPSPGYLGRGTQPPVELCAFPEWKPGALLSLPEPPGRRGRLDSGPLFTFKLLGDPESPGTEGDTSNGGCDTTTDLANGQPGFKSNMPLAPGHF
In words: Radioligand binding, adrenergic α1B ([3H]Prazosin). The conditions noted are these: for Percentage inhibition of ligand binding, Adrenergic α1B (0.1 μM) / Percentage inhibition of ligand binding, Adrenergic α1B: 0.1 µM. The procedure, abridged:
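Filter binding with Wistar rat liver α1B preparation: test compound plus 0.25 nM [3H]prazosin, 1 h at 25° C in modified Tris-HCl buffer pH 7.4.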

Setting [4] is: compound at 0.1 μM, [3H]MK-912, repeat datapoints each shown.
The mark [5] stands for this setting: compound at 0.03 μM, [3H]Rauwolscine, repeat datapoints each shown.
[6] abbreviates: compound at 0.1 μM, [3H]Prazosin, repeat datapoints each shown.
The mark [7] stands for this setting: compound at 0.1 μM, [3H]MK-912, repeat assays, each datapoint shown.
[8] abbreviates: compound at 0.03 μM, [3H]Rauwolscine, repeat assays, each datapoint shown.
Where [9] appears, read: compound at 0.1 μM, [3H]Prazosin, repeat assays, each datapoint shown, read-out: Percentage inhibition of ligand binding, Adrenergic α1B.
[10] abbreviates: read-out: Percentage inhibition of ligand binding, Adrenergic α2B (0.03 μM), compound at 0.03 μM, [3H]Rauwolscine, repeat datapoints each shown.
[11] abbreviates: read-out: Percentage inhibition of ligand binding, Adrenergic α1B (0.1 μM), compound at 0.1 μM, [3H]Prazosin, repeat datapoints each shown.
Setting [12] is: 0.1 μM compound, read-out: Percentage inhibition of ligand binding, Adrenergic α2A.
Setting [13] is: read-out: Percentage inhibition of ligand binding, Adrenergic α2A (0.1 μM), compound at 0.1 μM, [3H]MK-912, repeat datapoints each shown.
Where [14] appears, read: compound at 0.1 μM, [3H]Prazosin, repeat assays, each datapoint shown.

Consider `Cc1ccc2c(c1)c1c(n2CC(OC(=O)CCC(=O)O)c2ccncc2)CCN2CCCC12` (single isomer, unassigned) [V-18b, 4-(2-(10-methyl-2,3,5,6-tetrahydro-1H-indolizino[7,8-b]indol-7(11cH)-yl)-1-(pyridin-4-yl)ethoxy)-4-oxobutanoic acid], for which the “Percentage inhibition of ligand binding, Adrenergic α2A (0.1 μM)” value in assay [1] (setting [4]) was found to be 57%. For the same molecule, the “Percentage inhibition of ligand binding, Adrenergic α2B (0.03 μM)” value (shortened to “Percentage inhibition … (0.03 μM)”) in assay [2] (setting [5]) stood at 98%. For the same molecule, the “Percentage inhibition of ligand binding, Adrenergic α1B (0.1 μM)” value in assay [3] (setting [6]) amounted to 95%.
By inhibition is commonly meant the drop in the measured response relative to a control, in per cent. Consider `CN1CCc2c(c3cccc(Cl)c3n2CC(O)c2ccncc2)C1` (single isomer, unassigned) [45a], for which, in assay [1] (setting [7]), the “Percentage inhibition of ligand binding, Adrenergic α2A” value is reported as −4%. Also, the “Percentage inhibition of ligand binding, Adrenergic α2B” value in assay [2] (setting [8]) was 54%. The inhibition at 0.1 µM in assay [3] (setting [9]) came out at 23%.
Consider `Cc1ccc2c(c1)c1c(n2CC(C)(O)c2ccc(C(N)=O)nc2)CCN(C)C1` (single isomer, unassigned) [II-136b, 5-(1-(1,2,3,4-tetrahydro-2,8-dimethylpyrido[4,3-b]indol-5-yl)-2-hydroxypropan-2-yl)pyridine-2-carboxamide], for which the “Percentage inhibition of ligand binding, Adrenergic α2A (0.1 μM)” value in assay [1] (setting [4]) amounted to 5%. Further, the “Percentage inhibition … (0.03 μM)” value in assay [2] (setting [5]) is given as 32%. Also, the “Percentage inhibition of ligand binding, Adrenergic α1B (0.1 μM)” value in assay [3] (setting [6]) is given as 31%.
In general, Ki refers to a dissociation constant, usually derived from enzyme kinetics or from competition with a known ligand. With `Cc1ccc2c(c1)c1c(n2CCc2ccc(C)nc2)CCN2CCCC12` (single isomer, unassigned) [197b, 9-methyl-6-[2-(6-methyl-pyridin-3-yl)-ethyl]-2,3,4,5,6,10c-hexahydro-1H-3a, 6-diaza-cyclopenta[c]fluorene], the results for the Ki in assay [1] and in assay [2] were 11.9 nM and 0.78 nM, respectively. Moreover, in assay [1] (setting [4]), the “Percentage inhibition of ligand binding, Adrenergic α2A (0.1 μM)” value is 56% and 77%. The inhibition at 0.03 µM in assay [1] (read-out: Percentage inhibition of ligand binding, Adrenergic α2A (0.03 μM), compound at 0.03 μM, [3H]MK-912, repeat datapoints each shown) was 50%; in assay [2] (setting [10]) it was 101%; in assay [3] (read-out: Percentage inhibition of ligand binding, Adrenergic α1B (0.03 μM), compound at 0.03 μM, [3H]Prazosin, repeat datapoints each shown) it was 89%. For the same molecule, the “Percentage inhibition … (0.03 μM)” value in assay [2] (setting [5]) came to 105%. Further, the inhibition at 0.1 µM in assay [3] (setting [11]) worked out at 96%.
`Cc1cnc2c(c1)c1c(n2CC(C)(O)c2cccnc2)CCN(C)C1` (single isomer, unassigned) [II-99a]: the inhibition at 0.1 µM in assay [1] (setting [12]) was found to be 24%. For the same molecule, the “Percentage inhibition of ligand binding, Adrenergic α2B” value in assay [2] (0.03 μM compound) was determined as 49%. The “Percentage inhibition of ligand binding, Adrenergic α1B” value in assay [3] (0.1 μM compound) is 12%.
Consider `Cc1ccc2c(c1)c1c(n2CC(O)c2ccccc2F)CN(C)CC1` (single isomer, unassigned) [II-49a, 2-(2,6-dimethyl-3,4-dihydro-1H-pyrido[3,4-b]indol-9(2H)-yl)-1-(2-fluorophenyl)ethanol], for which the inhibition at 0.1 µM in assay [1] (setting [12]) stood at 34%. Further, the inhibition at 0.03 µM in assay [2] (0.03 μM compound, read-out: Percentage inhibition of ligand binding, Adrenergic α2B) came to 43%. Besides, the “Percentage inhibition of ligand binding, Adrenergic α1B” value in assay [3] (0.1 μM compound) is 47%.
For the molecule `Cc1ccc(CCn2c3c(c4c(Br)ccc(Cl)c42)CN(C)CC3)cn1` [II-247, 9-bromo-6-chloro-2,3,4,5-tetrahydro-2-methyl-5-(2-(6-methylpyridin-3-yl)ethyl)-1H-pyrido[4,3-b]indole], the inhibition at 0.1 µM in assay [1] (setting [13]) was 83%; in assay [3] (setting [11]), 3%. Further, the inhibition at 0.03 µM in assay [2] (setting [10]) was 19%.
As for `Cc1ccc2c(c1)c1c(n2CC(OC(=O)C(C)C)c2ccncc2)CCN(C)C1` (single isomer, unassigned) [54b, 2-(1,2,3,4-tetrahydro-2,8-dimethylpyrido[4,3-b]indol-5-yl)-1-(pyridin-4-yl)ethyl isobutyrate], in assay [1] (setting [7]), the “Percentage inhibition of ligand binding, Adrenergic α2A” value is 66%. In addition, the “Percentage inhibition of ligand binding, Adrenergic α2B” value in assay [2] (setting [8]) is 106%. For the same molecule, the “Percentage inhibition of ligand binding, Adrenergic α1B” value in assay [3] (setting [14]) came out at 71%.
As for `CN1CCc2c(n(CC(C)(O)c3cccnc3)c3ccc(Cl)cc23)C1` (single isomer, unassigned) [28b], the “Percentage inhibition of ligand binding, Adrenergic α2A” value in assay [1] (setting [7]) was 24%. The “Percentage inhibition of ligand binding, Adrenergic α2B” value in assay [2] (setting [8]) worked out at 37%. Moreover, in assay [3] (setting [14]), the “Percentage inhibition of ligand binding, Adrenergic α1B” value is 20%.
The matching figures for `Cc1ccc2c(c1)c1c(n2CC(O)c2ccccn2)CN(C)CC1` (single isomer, unassigned) [22b]: 0%, 30% and 9%.
As for `Cc1cc2c3c(n(CC(C)(O)c4cccnc4)c2cc1CO)CCN(C)C3` (stereo not shown) [II-154], the inhibition at 0.1 µM in assay [1] (setting [13]) turned out to be 11%; in assay [3] (setting [11]), 2%. The inhibition at 0.03 µM in assay [2] (setting [10]) came out at 73%.
In the case of `CN1CCc2c(c3cc(Cl)cnc3n2CC(C)(O)c2ccc(C(F)(F)F)nc2)C1` (single isomer, unassigned) [II-109a], the “Percentage inhibition of ligand binding, Adrenergic α2A (0.1 μM)” value in assay [1] (setting [4]) is on record as 2%. Also, the “Percentage inhibition … (0.03 μM)” value in assay [2] (setting [5]) is 41%. Further, in assay [3] (setting [6]), the “Percentage inhibition of ligand binding, Adrenergic α1B (0.1 μM)” value turned out to be 27%.
With `CN1CCc2c(n(CC(O)c3ccncc3)c3ccc(Cl)cc23)CC1` (single isomer, unassigned) [15b, 2-(9-chloro-3-methyl-2,3,4,5-tetrahydroazepino[4,5-b]indol-6(1H)-yl)-1-(pyridin-4-yl)ethanol], the Ki in assay [1] came to 112 nM; in assay [2], 0.64 nM. Further, in assay [1] (setting [7]), the “Percentage inhibition of ligand binding, Adrenergic α2A” value is 24%. Further, the inhibition at 0.1 µM stood at 21% in assay [1] (compound at 0.1 μM, [3H]MK-912, repeat assays, each datapoint shown, read-out: Percentage inhibition of ligand binding, Adrenergic α2A) and 89% in assay [3] (setting [9]). The inhibition at 0.03 µM in assay [2] (compound at 0.03 μM, [3H]Rauwolscine, repeat assays, each datapoint shown, read-out: Percentage inhibition of ligand binding, Adrenergic α2B) came out at 103%; in assay [3] (compound at 0.03 μM, [3H]Prazosin, repeat assays, each datapoint shown, read-out: Percentage inhibition of ligand binding, Adrenergic α1B), 73%. Besides, in assay [3] (setting [14]), the “Percentage inhibition of ligand binding, Adrenergic α1B” value was 93%.
In the case of `Cc1cnc2c(c1)c1c(n2CC(O)c2ccncc2)CCN2CCCC12` (single isomer, unassigned) [IV-209b, 2-(9-Methyl-1,2,3,4,5,10c-hexahydro-3a,6,7-triaza-cyclopenta[c]fluoren-6-yl)-1-pyridin-4-yl-ethanol], in assay [1] (setting [4]), the “Percentage inhibition of ligand binding, Adrenergic α2A (0.1 μM)” value came to 10%. In addition, the “Percentage inhibition … (0.03 μM)” value in assay [2] (setting [5]) turned out to be 13%. In addition, in assay [3] (setting [6]), the “Percentage inhibition of ligand binding, Adrenergic α1B (0.1 μM)” value was found to be 11%.
